pIC50: −log10 of the molar value.
Columns and labels:
[1] = biological target: T1, PIK3Ca (Homo sapiens, UniProt P42336); experiment: Competition binding to affinity matrix in mixed human/mouse cell lysate, quantitative MS of species-specific peptides; conditions: for pIC50: HL-60 + RAW 264.7 mixed lysate
T1 construct: Cell lysates from a human (HL60) and a mouse cell line (Raw 264.7) were prepared; endogenous in cells; host or cells: HL60
Experimental: (§1) Cell lysates from a human (HL60) and a mouse cell line (Raw 264.7) were prepared and subsequently mixed at a 1:1 ratio. Compound 1 was added at various concentrations (3 μM, 0.75 μM, 0.047 μM, 0.012 μM, plus DMSO solvent control) to aliquots of this mixed cell lysate and allowed to bind to the proteins in the lysate. Subsequently, the affinity matrix (beads with immobilized ligands) was added to each aliquot to capture proteins that were not interacting with compound 1. The generation of the affinity matrix (beads with immobilized ligands) was described in WO 2009/098021.
(§2) After the incubation time of 60 minutes the beads with captured proteins were separated from the lysate and bead bound proteins were eluted in SDS sample buffer and subsequently separated by SDS-Polyacrylamide gel electrophoresis. Electrophoresis was stopped after 20 minutes and the gel was stained with colloidal Coomassie. The stained area of each gel lane was cut out and subjected to in-gel proteolytic digestion with trypsin. Peptides originating from the different aliquots treated with compound 1 and the DMSO solvent control were labeled with isobaric tagging reagents (Tandem mass tag (TMT®) reagents, Thermofisher). The TMT® reagents are a set of multiplexed, amine-specific, stable isotope reagents that can label peptides in up to six different biological samples enabling simultaneous identification and quantitation of peptides. The combined samples were analyzed with a nano-flow liquid chromatography system coupled online to a tandem mass spectrometer (LC-MS/MS) experiment followed by reporter ion quantitation in the MS/MS spectra (Ross et al., 2004. Mol. Cell. Proteomics 3(12):1154-1169; Dayon et al., 2008. Anal. Chem. 80(8):2921-2931; Thompson et al., 2003. Anal. Chem. 75(8):1895-1904). Further experimental protocols can be found in WO2006/134056 and a previous publication (Bantscheff et al., 2007. Nature Biotechnology 25, 1035-1044).
(§3) Cells were homogenized in a Potter S homogenizer in lysis buffer: 50 mM Tris-HCl, 0.8% NP40, 5% glycerol, 150 mM NaCl, 1.5 mM MgCl2, 25 mM NaF, 1 mM sodium vanadate, 1 mM DTT, pH 7.5. One complete EDTA-free tablet (protease inhibitor cocktail, Roche Diagnostics, 1 873 580) per 25 ml buffer was added. The material was dounced 20 times using a mechanized POTTER S, transferred to 50 ml falcon tubes, incubated for 30 minutes rotating at 4° C. and spun down for 10 minutes at 20,000×g at 4° C. (10,000 rpm in Sorvall SLA600, precooled). The supernatant was transferred to an ultracentrifuge (UZ)-polycarbonate tube (Beckmann, 355654) and spun for 1 hour at 145.000×g at 4° C. (40.000 rpm in Ti50.2, pre-cooled). The supernatant was transferred again to a fresh 50 ml falcon tube, the protein concentration was determined by a Bradford assay (BioRad) and samples containing 5 mg of protein per aliquot were prepared. The samples were immediately used for experiments or frozen in liquid nitrogen and stored frozen at −80° C. Cell extracts from human HL60 cells and mouse raw 264.7 cells were mixed in a one to one (1:1) ratio.
(§4) Sepharose®-beads with the immobilized ligands (35 μl beads per aliquot) were equilibrated in lysis buffer and incubated with a cell lysate sample containing 5 mg of protein on an end-over-end shaker (Roto Shake Genie, Scientific Industries Inc.) for 60 minutes at 4° C. Beads were collected, transferred to Mobicol-columns (MoBiTech 10055) and washed with 10 ml lysis buffer containing 0.4% NP40 detergent, followed by 5 ml lysis buffer containing 0.2% detergent. To elute bound proteins, 60 μl 2× SDS sample buffer was added to the column. The column was incubated for 30 minutes at 4° C. and the eluate was transferred to a siliconized microfuge tube by centrifugation. Proteins were then alkylated with 108 mM iodoacetamid. Proteins were then separated by SDS-Polyacrylamide electrophoresis (SDS-PAGE). Suitable gel bands were cut out and subjected to in-gel proteolytic digestion with trypsin. […]

[2] = biological target: T2, PIK4Cb (Homo sapiens, UniProt Q9UBF8); experiment: as above; conditions: HL-60 + RAW 264.7 mixed lysate
T2 construct: Cell lysates from a human (HL60) and a mouse cell line (Raw 264.7) were prepared; endogenous in cells; host or cells: HL60
Experimental: as §1, §2, §3, §4

[3] = biological target: T3, PIK4Ca (Homo sapiens, UniProt P42356); experiment: as above; conditions: HL-60 + RAW 264.7 mixed lysate
T3 construct: Cell lysates from a human (HL60) and a mouse cell line (Raw 264.7) were prepared; endogenous in cells; host or cells: HL60
Experimental: as §1, §2, §3, §4

[4] = biological target: T4, PIK3C3 (Homo sapiens, UniProt Q8NEB9); experiment: as above; conditions: Experiment 1 (human/mouse 1); HL-60 + RAW 264.7 mixed lysate
T4 construct: Cell lysates from a human (HL60) and a mouse cell line (Raw 264.7) were prepared; endogenous in cells; host or cells: HL60
Experimental: as §1, §2, §3, §4

[5] = biological target: T5, PIK3Cb (PI3Kbeta) (Mus musculus, UniProt Q8BTI9); experiment: as above; conditions: HL-60 + RAW 264.7 mixed lysate
T5 construct: Cell lysates from a human (HL60) and a mouse cell line (Raw 264.7) were prepared; endogenous in cells; host or cells: RAW264.7
Experimental: as §1, §2, §3, §4

[6] = biological target: T6, PIK3Cb (PI3Kbeta) (Homo sapiens, UniProt P42338); experiment: as above; conditions: for pIC50: HL-60 + RAW 264.7 mixed lysate
T6 construct: Cell lysates from a human (HL60) and a mouse cell line (Raw 264.7) were prepared; endogenous in cells; host or cells: HL60
T6 sequence (P42338 whole entry): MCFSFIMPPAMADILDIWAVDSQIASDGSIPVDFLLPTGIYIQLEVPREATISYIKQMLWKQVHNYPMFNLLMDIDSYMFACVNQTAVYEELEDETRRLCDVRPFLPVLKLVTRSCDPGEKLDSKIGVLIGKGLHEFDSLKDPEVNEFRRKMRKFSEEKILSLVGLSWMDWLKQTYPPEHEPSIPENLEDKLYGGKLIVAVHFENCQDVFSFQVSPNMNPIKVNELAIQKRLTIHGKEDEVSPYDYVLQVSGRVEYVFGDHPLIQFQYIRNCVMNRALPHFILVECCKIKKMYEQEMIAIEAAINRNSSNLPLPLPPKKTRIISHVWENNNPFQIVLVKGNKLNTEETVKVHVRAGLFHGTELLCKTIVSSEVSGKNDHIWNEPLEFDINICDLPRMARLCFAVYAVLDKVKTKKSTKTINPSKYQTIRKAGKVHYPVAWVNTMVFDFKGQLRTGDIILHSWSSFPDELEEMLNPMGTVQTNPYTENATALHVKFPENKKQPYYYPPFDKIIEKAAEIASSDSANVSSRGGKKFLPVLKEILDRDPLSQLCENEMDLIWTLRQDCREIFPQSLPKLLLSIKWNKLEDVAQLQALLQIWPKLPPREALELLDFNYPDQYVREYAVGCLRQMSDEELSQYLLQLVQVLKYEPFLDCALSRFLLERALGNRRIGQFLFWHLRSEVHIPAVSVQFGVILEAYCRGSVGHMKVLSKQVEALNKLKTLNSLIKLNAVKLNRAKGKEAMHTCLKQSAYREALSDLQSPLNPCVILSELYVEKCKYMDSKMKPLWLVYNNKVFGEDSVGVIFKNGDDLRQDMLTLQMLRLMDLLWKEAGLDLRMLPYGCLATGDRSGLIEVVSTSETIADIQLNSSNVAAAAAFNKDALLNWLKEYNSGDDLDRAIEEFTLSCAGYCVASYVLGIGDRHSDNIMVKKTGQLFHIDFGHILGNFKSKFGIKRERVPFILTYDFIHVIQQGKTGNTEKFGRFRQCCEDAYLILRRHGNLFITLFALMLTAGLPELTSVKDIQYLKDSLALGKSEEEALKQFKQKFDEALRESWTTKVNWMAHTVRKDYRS
T6 sequence (P27986 whole entry partner): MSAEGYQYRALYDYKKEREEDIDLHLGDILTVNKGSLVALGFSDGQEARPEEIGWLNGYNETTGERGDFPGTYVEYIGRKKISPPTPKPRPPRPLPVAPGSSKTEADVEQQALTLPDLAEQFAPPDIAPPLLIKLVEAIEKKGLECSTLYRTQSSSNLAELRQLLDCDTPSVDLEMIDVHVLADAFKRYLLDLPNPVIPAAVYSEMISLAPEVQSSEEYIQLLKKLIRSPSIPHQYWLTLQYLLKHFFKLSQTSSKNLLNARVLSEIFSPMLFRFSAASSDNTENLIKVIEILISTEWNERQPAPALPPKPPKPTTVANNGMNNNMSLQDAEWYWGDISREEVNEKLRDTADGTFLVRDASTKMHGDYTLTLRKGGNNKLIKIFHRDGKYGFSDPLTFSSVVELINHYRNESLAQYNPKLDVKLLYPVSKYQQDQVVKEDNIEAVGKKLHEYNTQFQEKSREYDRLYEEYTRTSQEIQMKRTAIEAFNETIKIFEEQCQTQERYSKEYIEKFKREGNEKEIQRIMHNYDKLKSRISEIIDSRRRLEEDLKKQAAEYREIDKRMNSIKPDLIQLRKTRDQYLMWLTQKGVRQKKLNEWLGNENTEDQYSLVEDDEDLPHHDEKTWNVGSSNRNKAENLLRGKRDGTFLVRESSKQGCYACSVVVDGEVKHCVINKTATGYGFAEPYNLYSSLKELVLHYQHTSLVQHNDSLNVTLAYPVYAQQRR
Experimental: as §1, §2, §3, §4

[7] = biological target: T7, PIK3Cg (PI3Kγ) (Homo sapiens, UniProt P48736); experiment: as above; conditions: for pIC50: HL-60 + RAW 264.7 mixed lysate
T7 construct: Cell lysates from a human (HL60) and a mouse cell line (Raw 264.7) were prepared; endogenous in cells; host or cells: HL60
T7 sequence (P48736 whole entry): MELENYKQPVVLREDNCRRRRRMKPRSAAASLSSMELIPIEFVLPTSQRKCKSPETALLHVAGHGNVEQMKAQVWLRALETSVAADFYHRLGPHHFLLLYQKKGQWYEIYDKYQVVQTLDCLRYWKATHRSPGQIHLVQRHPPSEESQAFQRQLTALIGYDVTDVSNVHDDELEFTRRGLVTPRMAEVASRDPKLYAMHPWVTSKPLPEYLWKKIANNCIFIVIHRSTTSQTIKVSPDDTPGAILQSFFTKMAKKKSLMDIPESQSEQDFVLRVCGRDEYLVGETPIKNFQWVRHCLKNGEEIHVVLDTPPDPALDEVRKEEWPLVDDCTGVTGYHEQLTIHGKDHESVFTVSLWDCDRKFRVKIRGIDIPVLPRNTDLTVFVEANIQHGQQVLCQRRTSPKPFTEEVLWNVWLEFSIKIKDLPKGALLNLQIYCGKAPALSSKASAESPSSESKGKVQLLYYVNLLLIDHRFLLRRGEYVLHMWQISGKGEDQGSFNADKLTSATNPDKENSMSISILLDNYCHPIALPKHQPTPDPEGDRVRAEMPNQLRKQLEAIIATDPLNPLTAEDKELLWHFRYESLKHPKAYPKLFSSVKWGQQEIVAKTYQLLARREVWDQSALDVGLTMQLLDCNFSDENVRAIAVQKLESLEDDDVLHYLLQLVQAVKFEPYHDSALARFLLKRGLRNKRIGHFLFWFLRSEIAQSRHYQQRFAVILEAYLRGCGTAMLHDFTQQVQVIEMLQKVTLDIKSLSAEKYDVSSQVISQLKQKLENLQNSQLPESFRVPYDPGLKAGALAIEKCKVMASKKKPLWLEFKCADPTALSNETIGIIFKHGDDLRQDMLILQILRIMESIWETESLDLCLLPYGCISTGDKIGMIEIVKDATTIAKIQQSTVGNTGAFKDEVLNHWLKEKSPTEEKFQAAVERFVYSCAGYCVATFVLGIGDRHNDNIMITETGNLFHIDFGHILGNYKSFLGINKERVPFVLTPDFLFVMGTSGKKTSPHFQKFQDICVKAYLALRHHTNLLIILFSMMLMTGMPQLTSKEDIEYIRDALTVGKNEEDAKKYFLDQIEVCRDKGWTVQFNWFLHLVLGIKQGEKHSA
Experimental: as §1, §2, §3, §4

[8] = biological target: T8, PIK3Cd (PI3Kδ) (Mus musculus, UniProt O35904); experiment: as above; conditions: HL-60 + RAW 264.7 mixed lysate
T8 construct: Cell lysates from a human (HL60) and a mouse cell line (Raw 264.7) were prepared; endogenous in cells; host or cells: RAW264.7
Experimental: as §1, §2, §3, §4

[9] = biological target: T9, PIK3Cd (PI3Kδ) (Homo sapiens, UniProt O00329); experiment: as above; conditions: for pIC50: HL-60 + RAW 264.7 mixed lysate
T9 construct: Cell lysates from a human (HL60) and a mouse cell line (Raw 264.7) were prepared; endogenous in cells; host or cells: HL60
T9 sequence (O00329 whole entry): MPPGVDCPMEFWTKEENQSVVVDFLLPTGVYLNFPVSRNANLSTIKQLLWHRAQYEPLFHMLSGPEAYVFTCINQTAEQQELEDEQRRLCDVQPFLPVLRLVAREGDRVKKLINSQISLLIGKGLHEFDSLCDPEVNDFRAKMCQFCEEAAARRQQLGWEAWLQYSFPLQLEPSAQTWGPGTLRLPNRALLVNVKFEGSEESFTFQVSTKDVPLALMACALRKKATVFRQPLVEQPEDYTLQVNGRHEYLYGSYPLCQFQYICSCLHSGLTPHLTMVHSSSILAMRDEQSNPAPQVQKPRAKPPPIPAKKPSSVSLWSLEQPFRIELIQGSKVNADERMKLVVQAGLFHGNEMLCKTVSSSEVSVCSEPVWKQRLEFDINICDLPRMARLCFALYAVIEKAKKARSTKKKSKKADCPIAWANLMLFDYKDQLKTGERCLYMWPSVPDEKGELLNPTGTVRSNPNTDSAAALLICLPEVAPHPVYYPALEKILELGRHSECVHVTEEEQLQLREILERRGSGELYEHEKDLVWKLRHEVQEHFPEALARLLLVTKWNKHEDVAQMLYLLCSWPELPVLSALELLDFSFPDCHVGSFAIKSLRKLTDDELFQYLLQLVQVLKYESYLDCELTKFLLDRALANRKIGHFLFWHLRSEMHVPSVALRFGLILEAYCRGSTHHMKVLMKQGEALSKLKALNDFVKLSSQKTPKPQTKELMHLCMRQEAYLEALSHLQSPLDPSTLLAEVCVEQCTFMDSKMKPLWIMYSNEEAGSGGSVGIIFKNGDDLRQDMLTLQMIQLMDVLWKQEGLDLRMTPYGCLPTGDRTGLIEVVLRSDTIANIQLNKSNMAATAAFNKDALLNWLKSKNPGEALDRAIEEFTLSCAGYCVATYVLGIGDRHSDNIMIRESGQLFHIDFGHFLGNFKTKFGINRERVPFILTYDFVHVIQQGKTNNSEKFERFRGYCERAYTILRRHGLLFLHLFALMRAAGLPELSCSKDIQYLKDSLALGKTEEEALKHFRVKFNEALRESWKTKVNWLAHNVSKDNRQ
T9 sequence (P27986 whole entry partner): as the sequence (P27986 whole entry partner) above
Experimental: as §1, §2, §3, §4

[10] = biological target: T10, PIK3Cg (PI3Kγ) (Mus musculus, UniProt Q9JHG7); experiment: as above; conditions: for pIC50: HL-60 + RAW 264.7 mixed lysate
T10 construct: Cell lysates from a human (HL60) and a mouse cell line (Raw 264.7) were prepared; endogenous in cells; host or cells: RAW264.7
T10 sequence (Q9JHG7 whole entry): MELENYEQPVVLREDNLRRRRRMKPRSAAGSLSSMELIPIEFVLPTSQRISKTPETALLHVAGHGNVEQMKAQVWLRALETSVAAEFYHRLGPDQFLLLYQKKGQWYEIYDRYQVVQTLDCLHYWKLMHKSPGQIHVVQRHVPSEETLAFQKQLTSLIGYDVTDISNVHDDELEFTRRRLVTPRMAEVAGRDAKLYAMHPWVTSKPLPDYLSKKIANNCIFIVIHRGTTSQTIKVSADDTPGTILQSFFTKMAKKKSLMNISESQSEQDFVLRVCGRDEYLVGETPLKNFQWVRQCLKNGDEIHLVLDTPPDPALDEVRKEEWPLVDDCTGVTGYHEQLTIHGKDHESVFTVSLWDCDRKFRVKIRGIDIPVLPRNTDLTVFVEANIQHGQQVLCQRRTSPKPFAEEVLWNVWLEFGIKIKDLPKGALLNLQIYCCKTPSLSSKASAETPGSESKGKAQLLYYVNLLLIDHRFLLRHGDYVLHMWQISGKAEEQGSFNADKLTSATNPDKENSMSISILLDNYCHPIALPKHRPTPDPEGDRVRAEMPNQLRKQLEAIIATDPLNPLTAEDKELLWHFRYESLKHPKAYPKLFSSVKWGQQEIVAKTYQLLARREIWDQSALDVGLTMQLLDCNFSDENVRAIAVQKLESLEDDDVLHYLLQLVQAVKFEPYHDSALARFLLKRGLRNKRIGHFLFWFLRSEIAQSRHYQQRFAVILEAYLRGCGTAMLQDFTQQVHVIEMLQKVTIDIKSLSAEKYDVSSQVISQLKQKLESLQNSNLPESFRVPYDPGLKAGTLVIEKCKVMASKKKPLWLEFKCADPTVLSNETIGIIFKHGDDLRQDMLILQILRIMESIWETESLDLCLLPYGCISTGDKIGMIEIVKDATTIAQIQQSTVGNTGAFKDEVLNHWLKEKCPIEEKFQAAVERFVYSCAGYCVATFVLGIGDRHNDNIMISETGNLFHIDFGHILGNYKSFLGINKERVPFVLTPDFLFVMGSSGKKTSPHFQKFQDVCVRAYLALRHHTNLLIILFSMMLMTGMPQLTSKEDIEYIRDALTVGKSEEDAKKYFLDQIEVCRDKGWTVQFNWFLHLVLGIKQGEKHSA
Experimental: as §1, §2, §3, §4

[11] = biological target: T11, PIK3R4 (Homo sapiens, UniProt Q99570); experiment: as above; conditions: Experiment 1 (human/mouse 1); HL-60 + RAW 264.7 mixed lysate
T11 construct: Cell lysates from a human (HL60) and a mouse cell line (Raw 264.7) were prepared; endogenous in cells; host or cells: HL60
Experimental: as §1, §2, §3, §4

[12] = biological target: T12, PI3Kβ (Mus musculus, UniProt Q8BTI9); experiment: Competition binding profile with the affinity matrix in mixed extracts of human and rodent cell lines; conditions: mixed extracts of human (Jurkat) and mouse RAW264.7 cells
T12 construct: acquired in mixed extracts of human, mouse and rat cell lines; endogenous in cells
Experimental: (§5) Since compound efficacy and toxicity are evaluated in laboratory animals, it is important to determine its potency and selectivity in the relevant species. In order to minimize inter-assay variation, we used a mass spectrometric targeted data acquisition approach (Savitski et al., 2010. J. Am. Soc. Mass. Spectrom. 21(10):1668-1679) based on species specific proteotypic peptides (FIG. 7) and mixed cell lysates. Competition binding profiles of compound 2 with the affinity matrix were acquired in mixed extracts of human, mouse and rat cell lines.
(§6) Proteomics-based inhibitor profiling. Affinity profiling assays were performed as described previously ([…]). Derivatized sepharose® beads (35 μl beads per sample) were equilibrated in lysis buffer and incubated with 1 ml (5 mg protein) cell lysate, which had been preincubated with test compound or vehicle for 45 min, on an end-over-end shaker for 1 hour. Incubation was done at 4° C. for all compounds. Beads were transferred to disposable columns (MoBiTec), washed with lysis buffer containing 0.2% NP-40 and eluted with 50 μl 2× SDS sample buffer. Proteins were alkylated with […] iodoacetamide for 30 minutes, separated on 4-12% NuPAGE (Invitrogen), and stained with colloidal Coomassie.
(§7) Sample preparation for mass spectrometry. Gels were cut into slices across the entire separation range and subjected to in-gel digestion. Peptide extracts were labeled with tandem mass tags (TMT®) (Thermo-Fisher Scientific) in 40 mM triethylammoniumbicarbonate (TEAB), pH 8.53. After quenching of the reaction with glycin labeled extracts were combined. For compound profiling experiments extracts from vehicle treated samples were labeled with TMT® reagent 131, and combined with extracts from compound-treated samples labeled with TMT® reagents 126-130, optionally fractionated using reversed phase chromatography at pH 12, dried and acidified prior to LC-MS/MS analysis.
(§8) LC-MS/MS analysis. Samples were dried in vacuo and resuspended in 0.1% formic acid in water and aliquots of the sample were injected into a nano-LC system (Eksigent 1 D+) coupled to LTQ-Orbitrap mass spectrometers (Thermo-Finnigan). Peptides were separated on custom 50 cm×[…] (internal diameter) reversed-phase columns (Reprosil) at 40° C. Gradient elution was performed from 2% acetonitrile to 40% acetonitrile in 0.1% formic acid over 2-4 hours. […] Intact peptides were detected in the Orbitrap at 30.000 resolution. […]
(§9) Creation of peptide inclusion lists. […] Subsequently for each human and mouse (or rat) protein that was of interest to the study the selected peptides were ranked according to the quality of the quantification and ease of identification inherent to these peptides (Savitski et al., 2010, J. Am. Soc. Mass. Spectrom. 21(10):1668-1679). […]
(§10) Peptide and protein quantification. […]

[13] = biological target: T13, PI3Kβ (Rattus norvegicus, UniProt Q9Z1L0); experiment: as above; conditions: mixed extracts of human (Jurkat) and rat RBL-1 cells
T13 construct: acquired in mixed extracts of human, mouse and rat cell lines; endogenous in cells
Experimental: as §5, §6, §7, §8, §9, §10

[14] = biological target: T14, PI3Kγ (Mus musculus, UniProt Q9JHG7); experiment: as above; conditions: mixed extracts of human (Jurkat) and mouse RAW264.7 cells
T14 construct: acquired in mixed extracts of human, mouse and rat cell lines; endogenous in cells
Experimental: as §5, §6, §7, §8, §9, §10

[15] = tested on: PI3Kγ; experiment: as above; conditions: mixed extracts of human (Jurkat) and rat RBL-1 cells
Experimental: as §5, §6, §7, §8, §9, §10

[16] = potency ratio across species, average of two experiments

SMILES: CC(C)(C)NS(=O)(=O)c1cncc(-c2ccc3nc(N)nn3c2)c1 [compound 1]
- pIC50 ([1]; Experiment 1 (human/mouse 1)): 5.62
- pIC50 ([1]; Experiment 2 (human/mouse 2)): 5.59
- Average ratio human mouse, PIK3Ca [1, 16]: app. 1
- pIC50 ([2]; Experiment 1 (human/mouse 1)): ≤ 5.52
- pIC50 ([2]; Experiment 2 (human/mouse 2)): ≤ 5.52
- pIC50 ([3]; Experiment 1 (human/mouse 1)): ≤ 5.52
- pIC50 ([3]; Experiment 2 (human/mouse 2)): ≤ 5.52
- pIC50 [4]: ≤ 5.52
- pIC50 ([5]; Experiment 1 (human/mouse 1)): 6.60
- pIC50 ([5]; Experiment 2 (human/mouse 2)): 6.79
- pIC50 ([6]; Experiment 1 (human/mouse 1)): 6.87
- pIC50 ([6]; Experiment 2 (human/mouse 2)): 6.55
- Average ratio human mouse, PIK3Cb [6, 16]: 0.87
- pIC50 ([7]; Experiment 1 (human/mouse 1)): 7.66
- pIC50 ([7]; Experiment 2 (human/mouse 2)): 7.57
- ratio of the IC50 for PIK3CD and PIK3CG (selectivity window) ([7]; in humans): 48
- Average ratio human mouse, PIK3Cg [7, 16]: 2.61
- pIC50 ([8]; Experiment 1 (human/mouse 1)): 5.88
- pIC50 ([8]; Experiment 2 (human/mouse 2)): 5.89
- pIC50 ([9]; Experiment 1 (human/mouse 1)): 5.97
- pIC50 ([9]; Experiment 2 (human/mouse 2)): 5.82
- Average ratio human mouse, PIK3Cd [9, 16]: 1.0
- pIC50 ([10]; Experiment 1 (human/mouse 1)): 7.24
- pIC50 ([10]; Experiment 2 (human/mouse 2)): 7.15
- IC50 ratio for PIK3CD and PIK3CG (selectivity window) ([10]; in mouse): 23
- pIC50 [11]: ≤ 5.52

SMILES: CC(C)(C)NS(=O)(=O)c1cncc(-c2cc(F)c3nc(N)nn3c2)c1 [compound 2]
- potency for PI3Kβ in mouse compared to human [12]: two- to four-fold lower
- potency for PI3Kβ in rat compared to human [13]: two- to four-fold lower
- potency for PI3Kγ in mouse compared to human [14]: two- to four-fold lower
- potency for PI3Kγ in rat compared to human [15]: two- to four-fold lower

Reference: patent US20140004530A1, “METHOD FOR THE EVALUATION OF COMPOUND-TARGET INTERACTIONS ACROSS SPECIES” (CELLZOME GMBH, priority 2010, published 2014)
